From patent US10508120B2, “TYK2 inhibitors and uses thereof” (Nimbus Lakshmi, Inc., priority 2017, dated 2019) come the findings set out here.

pIC50, pKd: −log10 of the molar value. Where two headings read alike, the source gives them in different places.

Assay [1] addresses human TYK2 (JH2domain-pseudokinase) (Homo sapiens (Human), UniProt P29597). The experiment in a line: TYK2 JH2 Domain Binding Assay (KINOMEscan). The procedure, abridged:
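Pseudokinase domain binding was measured by qPCR of tagged, bead-retained kinase after 1 h room-temperature competition, with 0.9% DMSO and compound up to 30,000 nM in 3-fold steps. Hill-equation Kd, duplicate.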

In another assay the target is JAK2 kinase domain (JH1) (Homo sapiens (Human), UniProt O60674). The experiment in a line: JAK2 Radioactive Kinase Assay. The class given is biochemical. To be noted: read-out: JAK2 JH1% Inhibition @ 10 μM. The procedure, abridged: (§1)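 Read-out is percent inhibition from a radioactive kinase reaction, measured with compound at 10 μM.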
In assay [2] the target is JAK2/JAK2 homdimeric complex (Homo sapiens (Human), UniProt O60674). The experiment in a line: GM-CSF Induced pSTAT5 in Human PBMC. It is filed as cell-based. Particulars: GM-CSF 5 ng/mL for 20 minutes, pSTAT5 by MSD, read-out: PBMC_GMCSF_pSTAT5 IC50.
Assay [3] addresses Tyk2/JAK2 (heterodimeric complex) (Homo sapiens (Human), UniProt P29597). Nature of the assay: IL-12 Induced pSTAT4 in Human PBMC. To be noted: 1.7 ng/mL IL-12. The class given is cell-based. The source says: The IL-12 Induced pSTAT4 assay evaluates the inhibition of IL-12 induced STAT4 phophorylation mediated by Tyk2/JAK2 (heterodimeric complex).
Another assay deals with Tyk2 kinase domain (DH1) (Homo sapiens (Human), UniProt P29597). The experiment in a line: Tyk2 Radioactive Kinase Assay. It is filed as biochemical. Particulars: read-out: Tyk2 JH1% Inhibition @ 10 μM. The procedure, abridged: as §1
Chain of Tyk2 kinase domain (DH1) (P29597 897-1176): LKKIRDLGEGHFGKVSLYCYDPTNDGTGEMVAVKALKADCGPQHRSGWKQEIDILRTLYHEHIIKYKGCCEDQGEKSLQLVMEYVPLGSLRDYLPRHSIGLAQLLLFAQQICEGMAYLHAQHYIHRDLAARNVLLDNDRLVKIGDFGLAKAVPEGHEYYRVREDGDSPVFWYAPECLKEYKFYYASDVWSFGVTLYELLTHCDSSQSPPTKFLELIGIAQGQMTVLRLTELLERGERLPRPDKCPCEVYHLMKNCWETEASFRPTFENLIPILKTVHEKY

Chain of human TYK2 (JH2domain-pseudokinase) (P29597 556-888): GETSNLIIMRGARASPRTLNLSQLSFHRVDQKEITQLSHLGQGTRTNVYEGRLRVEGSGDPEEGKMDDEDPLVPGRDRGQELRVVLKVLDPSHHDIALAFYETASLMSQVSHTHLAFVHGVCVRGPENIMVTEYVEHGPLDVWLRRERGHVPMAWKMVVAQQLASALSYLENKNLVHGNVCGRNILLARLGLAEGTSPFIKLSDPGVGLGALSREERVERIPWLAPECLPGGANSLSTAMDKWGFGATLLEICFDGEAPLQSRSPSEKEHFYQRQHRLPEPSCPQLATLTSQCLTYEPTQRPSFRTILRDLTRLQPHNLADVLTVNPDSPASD
Chain of JAK2 kinase domain (JH1) (O60674 849-1124): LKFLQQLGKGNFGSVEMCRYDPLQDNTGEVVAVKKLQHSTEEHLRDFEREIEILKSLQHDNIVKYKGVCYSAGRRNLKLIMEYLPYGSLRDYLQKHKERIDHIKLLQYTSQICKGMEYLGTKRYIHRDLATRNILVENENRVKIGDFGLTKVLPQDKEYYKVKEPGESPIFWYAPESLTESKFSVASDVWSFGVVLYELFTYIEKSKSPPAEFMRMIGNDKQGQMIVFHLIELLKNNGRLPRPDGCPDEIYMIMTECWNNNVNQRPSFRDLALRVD
Chain of Tyk2/JAK2 (heterodimeric complex) (P29597 whole entry, other chains not shown, the tested form may be a part): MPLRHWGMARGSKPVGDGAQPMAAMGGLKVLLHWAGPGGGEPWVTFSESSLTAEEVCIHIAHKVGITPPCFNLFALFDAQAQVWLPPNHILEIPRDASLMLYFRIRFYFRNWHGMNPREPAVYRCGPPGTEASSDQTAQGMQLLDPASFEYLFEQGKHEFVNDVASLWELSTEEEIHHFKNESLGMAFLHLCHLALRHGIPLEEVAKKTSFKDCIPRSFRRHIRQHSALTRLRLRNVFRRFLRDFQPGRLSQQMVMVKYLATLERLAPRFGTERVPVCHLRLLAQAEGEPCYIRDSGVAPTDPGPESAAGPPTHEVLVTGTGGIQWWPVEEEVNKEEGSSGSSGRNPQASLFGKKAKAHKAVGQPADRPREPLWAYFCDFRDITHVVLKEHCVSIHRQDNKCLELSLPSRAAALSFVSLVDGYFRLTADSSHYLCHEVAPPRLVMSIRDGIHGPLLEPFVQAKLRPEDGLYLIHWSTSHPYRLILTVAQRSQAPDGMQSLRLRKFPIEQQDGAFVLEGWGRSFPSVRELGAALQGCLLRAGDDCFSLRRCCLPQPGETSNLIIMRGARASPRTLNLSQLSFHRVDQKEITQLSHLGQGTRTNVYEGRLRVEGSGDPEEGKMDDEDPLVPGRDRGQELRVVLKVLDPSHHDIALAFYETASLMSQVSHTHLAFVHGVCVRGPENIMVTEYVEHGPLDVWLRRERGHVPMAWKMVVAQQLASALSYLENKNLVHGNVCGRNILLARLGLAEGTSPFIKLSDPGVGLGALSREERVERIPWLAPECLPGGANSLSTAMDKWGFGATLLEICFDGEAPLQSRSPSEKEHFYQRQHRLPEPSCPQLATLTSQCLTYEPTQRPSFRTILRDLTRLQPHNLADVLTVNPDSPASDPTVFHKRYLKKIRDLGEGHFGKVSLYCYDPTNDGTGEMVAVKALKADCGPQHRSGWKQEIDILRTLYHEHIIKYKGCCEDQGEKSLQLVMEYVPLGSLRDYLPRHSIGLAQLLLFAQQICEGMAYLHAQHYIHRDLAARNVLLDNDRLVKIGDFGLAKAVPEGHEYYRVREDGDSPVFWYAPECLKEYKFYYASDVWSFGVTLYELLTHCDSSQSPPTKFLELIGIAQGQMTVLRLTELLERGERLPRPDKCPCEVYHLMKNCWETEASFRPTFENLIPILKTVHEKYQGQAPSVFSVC
Chain of JAK2/JAK2 homdimeric complex (O60674 whole entry): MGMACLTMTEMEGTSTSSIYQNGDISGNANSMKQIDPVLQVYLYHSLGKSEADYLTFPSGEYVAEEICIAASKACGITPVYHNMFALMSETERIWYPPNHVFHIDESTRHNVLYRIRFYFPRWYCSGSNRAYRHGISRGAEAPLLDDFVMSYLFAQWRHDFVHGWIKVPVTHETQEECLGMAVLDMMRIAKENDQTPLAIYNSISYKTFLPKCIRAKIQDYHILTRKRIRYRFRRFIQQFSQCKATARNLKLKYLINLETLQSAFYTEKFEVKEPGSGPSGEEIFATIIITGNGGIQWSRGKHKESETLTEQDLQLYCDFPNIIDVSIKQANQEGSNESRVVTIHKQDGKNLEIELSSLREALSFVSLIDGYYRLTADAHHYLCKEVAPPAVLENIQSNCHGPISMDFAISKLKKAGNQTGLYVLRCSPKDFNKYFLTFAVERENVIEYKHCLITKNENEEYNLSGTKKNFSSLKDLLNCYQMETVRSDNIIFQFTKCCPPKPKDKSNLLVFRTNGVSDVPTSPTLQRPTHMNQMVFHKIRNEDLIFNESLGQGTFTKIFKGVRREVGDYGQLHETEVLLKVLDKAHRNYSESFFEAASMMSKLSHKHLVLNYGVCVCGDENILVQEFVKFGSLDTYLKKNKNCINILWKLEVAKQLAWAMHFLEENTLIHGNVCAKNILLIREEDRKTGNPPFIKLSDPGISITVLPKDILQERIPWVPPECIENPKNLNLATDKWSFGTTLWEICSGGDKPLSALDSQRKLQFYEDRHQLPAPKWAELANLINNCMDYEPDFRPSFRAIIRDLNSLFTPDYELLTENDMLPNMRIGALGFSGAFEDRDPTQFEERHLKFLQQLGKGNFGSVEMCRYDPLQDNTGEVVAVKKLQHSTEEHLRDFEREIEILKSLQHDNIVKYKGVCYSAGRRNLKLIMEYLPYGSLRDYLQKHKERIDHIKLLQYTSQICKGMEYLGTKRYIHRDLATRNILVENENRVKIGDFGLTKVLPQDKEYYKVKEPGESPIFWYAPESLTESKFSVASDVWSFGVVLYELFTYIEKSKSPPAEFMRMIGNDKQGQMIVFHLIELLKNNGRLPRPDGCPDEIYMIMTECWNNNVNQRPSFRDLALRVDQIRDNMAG
Chain of JAK2/JAK2 homdimeric complex (P32927 17-897 partner): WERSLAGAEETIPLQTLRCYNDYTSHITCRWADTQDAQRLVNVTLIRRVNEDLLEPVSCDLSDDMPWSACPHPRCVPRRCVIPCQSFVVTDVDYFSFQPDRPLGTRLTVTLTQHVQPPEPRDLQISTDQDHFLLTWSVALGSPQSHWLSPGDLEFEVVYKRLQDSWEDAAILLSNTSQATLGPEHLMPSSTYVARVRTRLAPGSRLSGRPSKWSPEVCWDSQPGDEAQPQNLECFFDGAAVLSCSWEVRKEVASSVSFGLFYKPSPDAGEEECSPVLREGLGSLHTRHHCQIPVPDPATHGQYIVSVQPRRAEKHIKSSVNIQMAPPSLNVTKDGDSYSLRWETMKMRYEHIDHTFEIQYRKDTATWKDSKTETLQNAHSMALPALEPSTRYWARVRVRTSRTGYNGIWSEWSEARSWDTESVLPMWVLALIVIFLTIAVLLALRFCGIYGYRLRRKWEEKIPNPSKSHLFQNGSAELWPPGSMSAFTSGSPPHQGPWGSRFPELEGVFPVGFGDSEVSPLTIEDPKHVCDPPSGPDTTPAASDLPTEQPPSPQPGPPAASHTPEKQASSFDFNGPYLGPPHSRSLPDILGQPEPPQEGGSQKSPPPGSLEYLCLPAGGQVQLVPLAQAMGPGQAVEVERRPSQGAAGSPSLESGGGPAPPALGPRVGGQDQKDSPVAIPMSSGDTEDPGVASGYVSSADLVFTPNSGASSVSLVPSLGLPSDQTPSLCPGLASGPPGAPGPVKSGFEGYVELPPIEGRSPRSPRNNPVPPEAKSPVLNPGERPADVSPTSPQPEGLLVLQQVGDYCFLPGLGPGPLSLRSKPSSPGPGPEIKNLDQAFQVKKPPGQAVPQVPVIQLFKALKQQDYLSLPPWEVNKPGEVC

The term pKd denotes the negative decadic logarithm of the Kd, by convention in mol/L. High values mean a small Kd, low ones a large Kd. What is called inhibition is the share of the control response that was lost under treatment. One may read the pIC50 as −log10 of the IC50, conventionally taken in molar units. In assay [1], `CNc1cc(Nc2cccn([C@H]3CC[C@@H](N4CCOCC4)CC3)c2=O)nc2c(C(=O)NC3CCC3)cnn12` [I-182] gave a pKd of more than 9.70. The inhibition at 10 µM on JAK2 kinase domain (JH1) (compound at 10 μM, ATP 10 μM) was less than 50%; at Tyk2 kinase domain (DH1) (compound at 10 μM, ATP 10 μM), less than 50%. In addition, the negative logarithm of the IC50 (pIC50) in assay [2] is less than 5.60; in assay [3] it was more than 7.00.

For the compound `CNc1cc(Nc2cccn(-c3cnc(C(=O)N(C)C)cn3)c2=O)nc2c(C(=O)N[C@H]3C[C@H]3F)cnn12` [I-126], the pKd in assay [1] was more than 9.70. Further, the inhibition at 10 µM is less than 50% at JAK2 kinase domain (JH1) (compound at 10 μM, ATP 10 μM) and less than 50% on Tyk2 kinase domain (DH1) (compound at 10 μM, ATP 10 μM). The values for the pIC50 in assay [2] and in assay [3] were less than 4.30 and more than 7.00, respectively.

`CNc1cc(Nc2cc(Cl)cn(C3CCN(C)CC3)c2=O)nc2c(C(=O)NC3CC3)cnn12` [I-883] showed a pKd in assay [1] of more than 9.70. Besides, the inhibition at 10 µM was less than 50% on JAK2 kinase domain (JH1) (10 μM compound, 10 μM ATP) and less than 50% at Tyk2 kinase domain (DH1) (10 μM compound, 10 μM ATP). Moreover, the pIC50 was less than 4.90 in assay [2] and more than 7.00 in assay [3].

On to `CNc1cc(Nc2cc(Cl)cn(-c3cnn(C4CC4)c3C)c2=O)nc2c(C(=O)N[C@H]3C[C@H]3F)cnn12` [I-326], for which the negative logarithm of the Kd (pKd) in assay [1] was more than 9.70. In addition, the inhibition at 10 µM on JAK2 kinase domain (JH1) (compound at 10 μM, ATP 10 μM) was less than 50%; on Tyk2 kinase domain (DH1) (compound at 10 μM, ATP 10 μM), less than 50%. Also, the values for the pIC50 in assay [2] and in assay [3] were less than 4.30 and more than 7.00, respectively.

`CNc1cc(Nc2cccn([C@@H]3CCCOC3)c2=O)nc2c(C(=O)N[C@@H]3C[C@@H]3F)cnn12` [I-474] gave a pKd in assay [1] of more than 9.70. Also, the inhibition at 10 µM at JAK2 kinase domain (JH1) (compound at 10 μM, ATP 10 μM) is less than 50%; on Tyk2 kinase domain (DH1) (compound at 10 μM, ATP 10 μM), less than 50%. In addition, the pIC50 is less than 4.90 in assay [2] and more than 7.00 in assay [3].

Regarding `CNc1cc(Nc2cccn(-c3cccnc3)c2=O)nc2c(C(=O)NC3CC3)cnn12` [I-747], in assay [1], the pKd was more than 9.70. Moreover, the inhibition at 10 µM was less than 50% on JAK2 kinase domain (JH1) (compound at 10 μM, ATP 10 μM) and less than 50% at Tyk2 kinase domain (DH1) (compound at 10 μM, ATP 10 μM). Also, the negative-log IC50 (pIC50) in assay [2] is less than 4.90; in assay [3], 6.30 to 7.00.

`CNc1cc(Nc2cc(Cl)cn(-c3cnn(C)c3)c2=O)nc2c(C(=O)NC3CC3)cnn12` [I-311]: in assay [1], the pKd was more than 9.70. Also, the inhibition at 10 µM on JAK2 kinase domain (JH1) (compound at 10 μM, ATP 10 μM) was less than 50%; at Tyk2 kinase domain (DH1) (compound at 10 μM, ATP 10 μM), less than 50%. Also, the pIC50 is less than 4.90 in assay [2] and more than 7.00 in assay [3].

`CNc1cc(Nc2cccn([C@H]3CC[C@@](C)(OC)CC3)c2=O)nc2c(C(=O)NC3CC3)cnn12` [I-359] had a pKd in assay [1] of more than 9.70. The inhibition at 10 µM at JAK2 kinase domain (JH1) (compound at 10 μM, ATP 10 μM) was less than 50%; on Tyk2 kinase domain (DH1) (compound at 10 μM, ATP 10 μM), less than 50%. The results for the pIC50 in assay [2] and in assay [3] were less than 4.90 and 6.30 to 7.00, respectively.

`CNc1cc(Nc2cccn(-c3ccc(C4CC4)nn3)c2=O)nc2c(C(=O)N[C@H]3C[C@H]3F)cnn12` [I-165] showed a pKd in assay [1] of more than 9.70. The inhibition at 10 µM at JAK2 kinase domain (JH1) (compound at 10 μM, ATP 10 μM) was less than 50%; at Tyk2 kinase domain (DH1) (compound at 10 μM, ATP 10 μM), less than 50%. For the same compound, the pIC50 was less than 5.60 in assay [2] and more than 7.00 in assay [3].

`CNc1cc(Nc2cccnc2OC2CC2)nc2c(C(=O)NC3CC3)cnn12` [I-215, 5-((2-cyclopropoxypyridin-3-yl)amino)-N-cyclopropyl-7-(methylamino) pyrazolo[1,5-a]pyrimidine-3-carboxamide]: the pKd in assay [1] is more than 9.70. In addition, the inhibition at 10 µM on JAK2 kinase domain (JH1) (compound at 10 μM, ATP 10 μM) was less than 50%; on Tyk2 kinase domain (DH1) (compound at 10 μM, ATP 10 μM), less than 50%. Moreover, the pIC50 was less than 4.30 in assay [2] and more than 7.00 in assay [3].

The compound `CNc1cc(Nc2cccc(N3CCCC3=O)n2)nc2c(C(N)=O)cnn12` [I-47] showed a pKd in assay [1] of more than 9.70. The inhibition at 10 µM on JAK2 kinase domain (JH1) (compound at 10 μM, ATP 10 μM) is less than 50%; at Tyk2 kinase domain (DH1) (compound at 10 μM, ATP 10 μM), less than 50%. Besides, the pIC50 in assay [2] is less than 6.52; in assay [3], more than 7.00.

In assay [1], `CNc1cc(Nc2cccnc2OC(C)C)nc2c(C(=O)NC3CCC3)cnn12` [I-145] had a pKd of more than 9.70. Further, the inhibition at 10 µM is less than 50% on JAK2 kinase domain (JH1) (compound at 10 μM, ATP 10 μM) and less than 50% at Tyk2 kinase domain (DH1) (compound at 10 μM, ATP 10 μM). For the same compound, the pIC50 in assay [2] is less than 4.30; in assay [3], 6.30 to 7.00.

As to `CNc1cc(Nc2cccn(-c3cc(C)nn3C)c2=O)nc2c(C(=O)NC3CCC3)cnn12` [I-342], in assay [1], the pKd was 9.00 to 9.70. For the same compound, the inhibition at 10 µM was less than 50% at JAK2 kinase domain (JH1) (compound at 10 μM, ATP 10 μM) and less than 50% on Tyk2 kinase domain (DH1) (compound at 10 μM, ATP 10 μM). The pIC50 in assay [2] was less than 4.90; in assay [3] it was more than 7.00.
